Test results: patent US20240174618A1, “SUBSTITUTED (2-HETEROARYLOXYPHENYL)SULFONATES, SALTS THEREOF AND THEIR USE AS HERBICIDAL AGENTS” (Bayer Aktiengesellschaft, priority 2021, published 2024)

Assays:
Type in all cases: in vivo
Veronica persica (VERPE) [1] = assay: A. Herbicidal pre-emergence efficacy, VERPE; settings: for Pre-emergence efficacy against VERPE: dosage 80 g/ha
Outline: (§1)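 Applied before emergence onto covering soil at rates of 1280 g/ha or less, using 600 L/ha spray water with 0.5% additive. Scoring: visual % efficacy after ~3 weeks, greenhouse.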

[2] = system: Echinochloa crus-galli (ECHCG); assay: C. Herbicidal pre-emergence efficacy, ECHCG; settings: scored after about 3 weeks
Text: (§2) Seeds of monocotyledonous and dicotyledonous weed plants and crop plants were placed in plastic or organic planting pots and covered with soil. The compounds of the invention, formulated in the form of wettable powders (WP) or as emulsion concentrates (EC), were then applied to the surface of the covering soil as aqueous suspension or emulsion with addition of 0.5% additive at a water application rate equivalent to 600 l/ha (converted). After the treatment, the pots were placed in a greenhouse and kept under good growth conditions for the test plants. After about 3 weeks, the efficacy of the preparations was scored visually in comparison with untreated controls as percentages. For example, • 100% efficacy=plants have died, • 0% efficacy=like untreated control plants.
(§3) Tables C1a to C14b below show the effects of selected compounds of the general formula (I) according to table 1 on various harmful plants at an application rate corresponding to 320 g/ha or less, which were obtained by the experimental procedure mentioned above.

[3] = system: Echinochloa crus-galli (ECHCG); assay: E. Herbicidal post-emergence efficacy, ECHCG
Description: (§4) Seeds of monocotyledonous and dicotyledonous weeds and crop plants were placed in sandy loam in plastic or organic planting pots, covered with soil and cultivated in a greenhouse under controlled growth conditions. 2 to 3 weeks after sowing, the test plants were treated at the one-leaf stage. The compounds of the invention, formulated in the form of wettable powders (WP) or as emulsion concentrates (EC), were then sprayed onto the green parts of the plants as aqueous suspension or emulsion with addition of 0.5% additive at a water application rate of 600 l/ha (converted). After the test plants had been kept in the greenhouse under optimum growth conditions for about 3 weeks, the activity of the preparations was rated visually in comparison to untreated controls.
(§5) For example, • 100% efficacy=plants have died, • 0% action=like untreated control plants.
(§6) Tables E1a to E12b below show the effects of selected compounds of the general formula (I) according to table 1 on various harmful plants at an application rate corresponding to 320 g/ha or less, which were obtained by the experimental procedure mentioned above.

[4] = system: Polygonum convolvulus (POLCO); assay: E. Herbicidal post-emergence efficacy, POLCO
Description: as §4, §5, §6

Veronica persica (VERPE) [5] = assay: E. Herbicidal post-emergence efficacy, VERPE
Description: as §4, §5, §6

Lolium rigidum (LOLRI) = assay: A. Herbicidal pre-emergence efficacy, LOLRI
Outline: as §1

[6] = system: Digitaria sanguinalis (DIGSA); assay: B. Herbicidal post-emergence efficacy, DIGSA; settings: rated visually after about 3 weeks
Description: Seeds of mono- and dicotyledonous weed plants were placed in plastic pots in sandy loam soil (doubly sown with in each case one species of mono- or dicotyledonous weed plants per pot), covered with soil and cultivated in a greenhouse under controlled growth conditions. 2 to 3 weeks after sowing, the test plants were treated at the one-leaf stage. The compounds of the invention, formulated in the form of wettable powders (WP) or as emulsion concentrates (EC), were applied onto the green parts of the plants as aqueous suspension or emulsion with addition of 0.5% additive at a water application rate of 600 liters per hectare (converted). After the test plants had been kept in the greenhouse under optimum growth conditions for about 3 weeks, the activity of the preparations was rated visually in comparison to untreated controls.
For example, • 100% efficacy=plants have died, • 0% efficacy=like untreated control plants
Tables B1a to B12c below show the effects of selected inventive compounds of the general formula (I) according to table 1 on various harmful plants at an application rate corresponding to 1280 g/ha or less, which were obtained by the experimental procedure mentioned above.

Kochia scoparia (KCHSC) = assay: C. Herbicidal pre-emergence efficacy, KCHSC
Text: as §2, §3

Row | Compound | Pre-emergence efficacy against VERPE in % (Veronica persica (VERPE) [1]; 320 g/ha) [%] | Pre-emergence efficacy against VERPE in % (Veronica persica (VERPE) [1]; 1280 g/ha) [%] | Pre-emergence efficacy against VERPE (Veronica persica (VERPE) [1]) [%] | Pre-emergence efficacy against ECHCG ([2]; 80 g/ha) [%] | Pre-emergence efficacy against ECHCG ([2]; 320 g/ha) [%] | Post-emergence efficacy against ECHCG in % ([3]; application rate 80 g/ha) [%] | Post-emergence efficacy against ECHCG in % ([3]; application rate 320 g/ha) [%] | Post-emergence efficacy against POLCO in % ([4]; application rate 80 g/ha) [%] | Post-emergence efficacy against POLCO in % ([4]; application rate 320 g/ha) [%] | Post-emergence efficacy against VERPE in % (Veronica persica (VERPE) [5]; application rate 80 g/ha) [%] | Post-emergence efficacy against VERPE in % (Veronica persica (VERPE) [5]; application rate 320 g/ha) [%] | Pre-emergence efficacy against LOLRI (Lolium rigidum (LOLRI); dosage 320 g/ha) [%] | Pre-emergence efficacy against LOLRI (Lolium rigidum (LOLRI); dosage 1280 g/ha) [%] | Post-emergence efficacy against DIGSA in % ([6]; 320 g/ha) [%] | Post-emergence efficacy against DIGSA in % ([6]; 1280 g/ha) [%] | Pre-emergence efficacy against KCHSC in % (Kochia scoparia (KCHSC); application rate 80 g/ha) [%] | Pre-emergence efficacy against KCHSC in % (Kochia scoparia (KCHSC); application rate 320 g/ha) [%]
1 | O=S(=O)(CCCCl)Oc1ccccc1Oc1ncc(F)cn1 [Example I-5] | 100 | 100 | 90 | 100 | 100 | 80 | 100 | 90 | 100 | 90 | 100 |  |  |  |  |  | 
2 | CCCCS(=O)(=O)Oc1ccccc1Oc1ncc(Cl)cn1 [Example I-6] |  | 90 |  | 100 | 100 | 90 | 100 | 90 | 100 | 90 | 90 | 90 | 90 |  |  |  | 
3 | CC(C)CS(=O)(=O)Oc1ccccc1Oc1ncc(Cl)cn1 [Example I-7, [2-(5-Chloropyrimidin-2-yl)oxyphenyl] 2-methylpropane-1-sulfonate] |  | 100 |  | 100 | 100 | 80 | 100 |  | 100 | 90 | 100 |  | 90 |  |  |  | 
4 | O=S(=O)(CCCC(F)(F)F)Oc1ccccc1Oc1ncc(Cl)cn1 [Example I-10] | 100 | 100 | 90 | 100 | 100 | 90 | 90 | 90 | 100 | 100 | 100 | 90 | 90 |  |  |  | 
5 | O=S(=O)(CCCCl)Oc1c(F)cccc1Oc1ncc(Cl)cn1 [Example I-14] | 100 | 100 | 100 | 100 | 100 | 90 | 100 | 80 | 90 | 100 | 100 | 100 | 100 | 100 | 100 |  | 
6 | O=S(=O)(CCCCCl)Oc1ccccc1Oc1ncc(Cl)cn1 [Example I-15] | 90 | 90 |  |  | 90 |  | 80 | 80 | 100 | 90 | 100 |  | 90 |  |  |  | 
7 | CCS(=O)(=O)Oc1ccccc1Oc1ncc(Cl)cn1 [Example I-16] | 90 | 100 |  |  |  |  |  |  |  |  |  |  | 90 |  | 90 |  | 
8 | Cc1cccc(Oc2ncc(Cl)cn2)c1OS(=O)(=O)CCCC(F)(F)F [Example I-28, 2-[(5-Chloropyrimidin-2-yl)oxy]-6-methylphenyl 4,4,4-trifluorobutane-1-sulfonate] | 100 | 100 |  |  |  |  |  |  |  |  |  | 90 | 100 |  | 90 |  | 
9 | Cc1cccc(Oc2ncc(Cl)cn2)c1OS(=O)(=O)CCC(F)(F)F [Example I-29] | 100 | 100 | 100 |  |  |  |  |  |  |  |  | 100 | 100 |  | 100 |  | 
10 | O=S(=O)(CCCC(F)(F)F)Oc1c(Br)cccc1Oc1ncc(Cl)cn1 [Example I-30] | 100 | 100 |  |  |  |  |  |  |  |  |  | 90 | 100 |  | 90 |  | 
11 | O=S(=O)(CCC(F)(F)F)Oc1c(Br)cccc1Oc1ncc(Cl)cn1 [Example I-31] | 100 | 100 |  |  |  |  |  |  |  |  |  |  | 100 |  | 90 |  | 
12 | O=S(=O)(CCCC(F)(F)F)Oc1c(Cl)cccc1Oc1ncc(Cl)cn1 [Example I-39] | 100 | 100 | 90 | 90 | 100 | 90 | 100 |  | 100 | 100 | 100 | 100 | 100 |  | 90 | 100 | 100
13 | O=S(=O)(CCCC(F)(F)F)Oc1c(F)cccc1Oc1ncc(F)cn1 [Example I-42] | 100 | 100 | 100 | 100 | 100 | 100 | 100 | 100 | 100 | 100 | 100 | 100 | 100 |  |  | 100 | 100
14 | Cc1cccc(Oc2ncc(F)cn2)c1OS(=O)(=O)CCCC(F)(F)F [Example I-46] | 90 | 100 | 90 | 90 | 100 |  | 100 |  | 100 | 100 | 100 | 100 | 100 |  |  |  | 100
15 | O=S(=O)(CCC(F)(F)F)Oc1c(F)cccc1Oc1ncc(F)cn1 [Example I-47] | 100 | 100 | 90 | 100 | 100 |  | 100 | 100 | 100 | 100 | 100 | 100 | 100 |  |  | 100 | 100
16 | O=S(=O)(CC1CC1(Cl)Cl)Oc1c(F)cccc1Oc1ncc(Cl)cn1 (stereo not drawn) [Example I-57] | 90 | 100 |  |  |  |  |  |  |  |  |  |  | 100 | 90 | 90 |  | 
